Consider three compounds from patent publication US20070185012A1, “Glycopeptides for the treatment of als and other metabolic and autoimmune disorders” (priority 2003, published 2007).

Like-named read-outs stand apart in the source and are kept apart here.

Data set [1] deals with mice. As to conditions: cited from earlier work.
The conditions of data set [2]: in vivo; cited from earlier work.
The conditions of data set [3]: orally administered; Lyons et al 2000; cited from earlier work.
Data set [4] concerns ALS patients. Briefly: Case reports of single ALS patients treated with glycopeptide (Examples 1-6).
Data set [5] can be described thus: Bioavailability, nasal versus oral administration. The settings on record: administered via the nasal route, compared with oral.
Data set [6] relates to ALS patients. The data set is described as follows: Twenty five ALS patients given aqueous intranasal spray of GMDP-A (Example 7). It counts as in vivo, human. As to conditions: 0.31 mg GMDP-A aqueous intranasal spray.
The mark [7] stands for this setting: Example 2: after 5 months of GMDP then GMDP-A.
[8] abbreviates: Example 5: GMDP-A intranasal spray 3 months.

The term LD50 denotes the dose at which mortality reaches 50%. For `CCCCCCCCCCCCCCCCCC(=O)NCCCC[C@H](NC(=O)CC[C@@H](NC(=O)[C@H](C)NC(=O)[C@@H](C)O[C@H]1[C@H](O)[C@@H](CO)OC(O)[C@@H]1NC(C)=O)C(N)=O)C(=O)O` (stereo partly drawn) [muroctasin, reference compound], the LD50 in data set [1] (mice) was 625 mg/kg.
`CC(=O)NC1C(OC2C(CO)OC(O)C(NC(C)=O)C2OC(C)C(=O)NC(C)C(=O)NC(CCC(=O)O)C(N)=O)OC(CO)C(O)C1O` [GMDP, N-acetyl-D-glucosaminyl-(β1-4)-N-acetylmuramyl-L-alanylD-isoglutamine]: the pyrogenicity entry in data set [2] is “sufficiently low”. The values for the bioavailability result in data set [3] and in data set [5] were “low bioavailability” and “improved”, respectively. Further, the voluntary motor function result in data set [4] (Example 1: 3 months, semi-weekly aqueous oral spray of GMDP) is on record as “Continued voluntary motor improvement”. Further, the “pulsox after removal of the oxygen” value in data set [4] (Example 1: 14 hours after first 6 mg GMDP dose, ambient air (82% before therapy), no respiratory distress) is 99%. Moreover, in data set [4] (Example 1: after fourth day of 6 mg GMDP, first time in 18 months), the speech entry was “began to speak soft-spoken words”. In data set [4] (Example 1: day three, 6 mg GMDP aqueous oral spray), the voluntary movement result is reported as “able to move all fingers on both hands excluding their thumbs”. Further, in data set [4] (Example 1: day two, additional 6 mg GMDP aqueous oral spray), the “time until small fingers responded to voluntary challenge” value was at most 2 h. Moreover, the pulsox in data set [4] (Example 1: person, final stage bulbar onset ALS, on pure oxygen (94% before), 6 mg GMDP aqueous oral spray plus 400 mg luteolin/400 mg rutin four times a day, within 24 hours) is 99%-100%. In data set [4] (Example 2: 10 mg GMDP aqueous oral spray), the “time of peak improvement of voice and energy” value was “one”. In addition, the ALS progression result in data set [4] (setting [7]) is recorded as “no progression”. In addition, in data set [4] (Example 2: person, bulbar onset ALS, on 2000 mg luteolin and 2000 mg rutin per day, 10 mg GMDP aqueous oral spray), the “time to dramatic improvement of voice and energy” value was at most 40 min. In addition, the “time to substantial improvement in leg strength and fasciculations” value in data set [4] (Example 3: 1.51 mg GMDP intranasally per day, on luteolin/rutin) is at most 24 h. Besides, the side effect result in data set [4] (Example 3: GMDP taken more frequently than every 96 hours) was “significant joint and muscle pain”. Also, in data set [4] (Example 3: after 2 weeks of daily GMDP (before: not over 15 meters with AFO)), the “walking distance without AFO” value is “up to 200 meters”. The LD50 in data set [1] (acute toxicity in mice) is 7000 mg/kg.
As to “N-acetyl-D-glucosaminyl-(β1-4)-N-acetylmuramyl-L-alanylD-glutamic acid [GMDP-A]”, the ALS progression result in data set [4] (setting [7]) is “no progression”; in data set [4] (Example 4: for 4 months), “No progression”. For the same compound, the fasciculations result in data set [4] (Example 3: 0.93 mg GMDP-A every 96 hours) is “major reductions”. Further, the “ALS progression and symptoms” value in data set [4] (Example 3: 1.42 mg GMDP-A every 96 hours, after 4 months of therapy) was “abated all progression and symptoms of ALS”. In addition, the arm function result in data set [4] (Example 4: 0.942 mg intranasal spray daily) was “ability to comb their hair and feed themself was restored”. The reduction in fasciculations in data set [4] (Example 4: 0.942 mg intranasal spray daily, within 2 days) is 90%; in data set [4] (Example 5: GMDP-A intranasal spray 3 months, 1.24/0.93/0.62/0.31/0.31 mg days one to five, 6 day cycle), 100%. In addition, the disease progression result in data set [4] (setting [8]) is given as “no progression of disease”. Also, the mobility result in data set [4] (setting [8]) was “ability to stand with support and walk with a walker”. In addition, the ALS symptoms entry in data set [4] (Example 6: GMDP-A intranasal spray 1.42 mg every 96 hours, 3 months) is recorded as “cessation of their ALS symptoms”. Also, the “time to reported symptom reduction and improvement” value in data set [6] is 24 to 96 h. Moreover, the “patients reporting dramatic reductions in symptoms (fasciculations, muscle weakness, fatigue, choking)” value in data set [6] (of twenty five ALS patients, 1-4 months) is reported as “Twenty one”. For the same compound, the bioavailability entry in data set [5] is “improved”.
